Measured values from the supplement of paper PMC9701192.
± gives the uncertainty stated by the source.

Key:
Experiment in all cases: mass response relative to vehicle control (EMD distance of treated vs reference mass distribution minus control baseline) (% of mean reference cell mass); higher = larger drug-induced change in single-cell mass distribution (stronger response)
MM1S ATCC = tested on: MM1S ATCC
Experimental: (§1)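 Cancer cell lines were treated in vitro with drugs at the listed doses (about 24 h; 0.25% DMSO vehicle). Single-cell buoyant mass was measured on suspended microchannel resonator instruments with CNN image curation, 2500 cells per condition. Mass response is the Earth Mover's Distance to vehicle-treated reference cells as % of mean reference mass.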

MOLM-13 = tested on: MOLM-13
Experimental: as §1

PC9 = tested on: PC9
Experimental: as §1

MDA-MB-361 = tested on: MDA-MB-361
Experimental: as §1

## O=C(/C=C\n1cnc(-c2cc(C(F)(F)F)cc(C(F)(F)F)c2)n1)NNc1cnccn1 [Selinexor]
MM1S ATCC; 0.005 µM
  mass response: -0.878 ± 0.35
MM1S ATCC; 0.05 µM
  mass response: 4.05 ± 1.2
MM1S ATCC; 0.5 µM
  mass response: 12.7 ± 3.1
MM1S ATCC; 5 µM
  mass response: 12 ± 3.1

## CC(C)(C)c1cc(NC(=O)Nc2ccc(-c3cn4c(n3)sc3cc(OCCN5CCOCC5)ccc34)cc2)no1 [Quizartinib]
MOLM-13; 0.0001 µM
  mass response: 1.17 ± 1.9
MOLM-13; 0.001 µM
  mass response: 16.3 ± 0.82
MOLM-13; 0.01 µM
  mass response: 27 ± 0.32
MOLM-13; 0.1 µM
  mass response: 25.8 ± 0.77

## CC(=O)[C@]1(O)Cc2c(O)c3c(c(O)c2[C@@H](O[C@H]2C[C@H](N)[C@H](O)[C@H](C)O2)C1)C(=O)c1ccccc1C3=O [Idarubicin]
MOLM-13; 0.001 µM
  mass response: -0.127 ± 1.4
MOLM-13; 0.01 µM
  mass response: 19.1 ± 2.9
MOLM-13; 0.1 µM
  mass response: 33.1 ± 2
MOLM-13; 1 µM
  mass response: 36.6 ± 2.1

## CO[C@@H]1[C@H](N(C)C(=O)c2ccccc2)C[C@H]2O[C@]1(C)n1c3ccccc3c3c4c(c5c6ccccc6n2c5c31)C(=O)NC4 [Midostaurin]
MOLM-13; 0.02 µM
  mass response: 14.9 ± 0.91
MOLM-13; 0.2 µM
  mass response: 38.7 ± 1.5
MOLM-13; 2 µM
  mass response: 27.7 ± 0.98
MOLM-13; 20 µM
  mass response: 30.2 ± 2.4

## COc1cc(N2CCC(N3CCN(C)CC3)CC2)ccc1Nc1ncc(Cl)c(Nc2ccccc2P(C)(C)=O)n1 [Brigatinib]
PC9; 0.1 µM
  mass response: 1.59 ± 3.9
PC9; 0.5 µM
  mass response: 22.4 ± 1.5
PC9; 1 µM
  mass response: 33.6 ± 2.4
PC9; 10 µM
  mass response: 51.3 ± 5.4

## Cn1ncnc1[C@H]1c2n[nH]c(=O)c3cc(F)cc(c23)N[C@@H]1c1ccc(F)cc1 [Talazoparib]
MDA-MB-361; 0.2 µM
  mass response: 8.83 ± 4.3
MDA-MB-361; 2 µM
  mass response: 8.66 ± 2.9
MDA-MB-361; 20 µM
  mass response: 11.8 ± 3.6
MDA-MB-361; 50 µM
  mass response: 13.1 ± 6.4

## CNC(=O)c1cc(Oc2ccc(NC(=O)Nc3ccc(Cl)c(C(F)(F)F)c3)cc2)ccn1 [Sorafenib]
MOLM-13; 0.0005 µM
  mass response: -1.17 ± 0.94
MOLM-13; 0.005 µM
  mass response: 10.6 ± 1
MOLM-13; 0.05 µM
  mass response: 32 ± 0.86
MOLM-13; 0.5 µM
  mass response: 35.2 ± 0.46

## CC(=O)O[C@H]1C(=O)[C@@]2(C)[C@H]([C@H](OC(=O)c3ccccc3)[C@]3(O)C[C@H](OC(=O)[C@H](O)[C@@H](NC(=O)c4ccccc4)c4ccccc4)C(C)=C1C3(C)C)[C@]1(OC(C)=O)CO[C@@H]1C[C@@H]2O [Paclitaxel]
PC9; 0.005 µM
  mass response: 0.247 ± 0.78
PC9; 0.025 µM
  mass response: 26.9 ± 1.3
PC9; 0.05 µM
  mass response: 30.7 ± 0.9
PC9; 0.1 µM
  mass response: 30.6 ± 1.4

## COc1cc([C@@H]2c3cc4c(cc3[C@@H](O[C@@H]3O[C@@H]5CO[C@@H](C)O[C@H]5[C@H](O)[C@H]3O)[C@H]3COC(=O)[C@H]23)OCO4)cc(OC)c1O [Etoposide]
PC9; 0.01 µM
  mass response: 0.492 ± 1.6
PC9; 0.1 µM
  mass response: 0.732 ± 2.1
PC9; 1 µM
  mass response: 12.3 ± 1
PC9; 10 µM
  mass response: 36.2 ± 0.97

## CC(=O)O[C@@]12CO[C@@H]1C[C@H](O)[C@@]1(C)C(=O)[C@H](O)C3=C(C)[C@@H](OC(=O)[C@H](O)[C@@H](NC(=O)OC(C)(C)C)c4ccccc4)C[C@@](O)([C@@H](OC(=O)c4ccccc4)[C@H]21)C3(C)C [Docetaxel]
PC9; 0.001 µM
  mass response: 0.63 ± 3.4
PC9; 0.0025 µM
  mass response: 5.56 ± 2.2
PC9; 0.005 µM
  mass response: 12.4 ± 1.8
PC9; 0.01 µM
  mass response: 25.2 ± 4.1

## COc1cccc2c1C(=O)c1c(O)c3c(c(O)c1C2=O)C[C@@](O)(C(=O)CO)C[C@@H]3O[C@H]1C[C@H](N)[C@H](O)[C@H](C)O1 [Doxorubicin]
PC9; 0.15 µM
  mass response: 33.3 ± 6.1
PC9; 0.625 µM
  mass response: 22.9 ± 4.7
PC9; 2.5 µM
  mass response: 6.7 ± 3
PC9; 10 µM
  mass response: 40.9 ± 3.2

## Nc1ncn([C@@H]2O[C@H](CO)[C@@H](O)[C@H]2O)c(=O)n1 [5-Azacytidine]
MOLM-13; 0.1 µM
  mass response: 1.27 ± 0.26
MOLM-13; 1 µM
  mass response: 10.1 ± 1.9
MOLM-13; 10 µM
  mass response: 35.2 ± 2.8
MOLM-13; 0.0001 M
  mass response: 36.45 ± 0.22

## COc1cccc2c1C(=O)c1c(O)c3c(c(O)c1C2=O)C[C@@](O)(C(C)=O)C[C@@H]3O[C@H]1C[C@H](N)[C@H](O)[C@H](C)O1 [Daunorubicin]
MOLM-13; 0.01 µM
  mass response: 3.77 ± 1.2
MOLM-13; 0.1 µM
  mass response: 22.3 ± 2.7
MOLM-13; 1 µM
  mass response: 31.1 ± 1.9
MOLM-13; 10 µM
  mass response: 45.8 ± 2.6

## O=C(O)C1(C(=O)O)CCC1.[NH2-].[NH2-].[Pt+2] [Carboplatin]
PC9; 0.1 µM
  mass response: -0.849 ± 1.3
PC9; 1 µM
  mass response: 1.45 ± 5.4
PC9; 10 µM
  mass response: 11.1 ± 3.2
PC9; 0.0001 M
  mass response: 25.9 ± 5.4

## Nc1cccc2c1CN(C1CCC(=O)NC1=O)C2=O (stereo not given) [Lenalidomide]
MM1S ATCC; 0.1 µM
  mass response: 1.82 ± 5.2
MM1S ATCC; 1 µM
  mass response: 4.81 ± 3.5
MM1S ATCC; 10 µM
  mass response: 4.13 ± 1.8
MM1S ATCC; 0.0001 M
  mass response: 14.4 ± 1.9

## COc1cc2ncnc(Nc3ccc(F)c(Cl)c3)c2cc1OCCCN1CCOCC1 [Gefitinib]
PC9; 0.05 µM
  mass response: 7.94 ± 10
PC9; 0.5 µM
  mass response: 23.1 ± 11
PC9; 5 µM
  mass response: 35.1 ± 9.7
PC9; 50 µM
  mass response: 81.56 ± 0.43

## C#Cc1cccc(Nc2ncnc3cc(OCCOC)c(OCCOC)cc23)c1 [Erlotinib]
PC9; 0.01 µM
  mass response: 0.55 ± 1.1
PC9; 0.1 µM
  mass response: 15.4 ± 1.5
PC9; 1 µM
  mass response: 17.2 ± 0.41
PC9; 10 µM
  mass response: 24.6 ± 1.6

## CC1(COc2ccc3c(c2)ncn3-c2ccc3cccc(N4CCC(N)CC4)c3n2)COC1 [Crenolanib]
MOLM-13; 0.001 µM
  mass response: 3.34 ± 2
MOLM-13; 0.01 µM
  mass response: 31 ± 1.7
MOLM-13; 0.1 µM
  mass response: 37.3 ± 0.76
MOLM-13; 1 µM
  mass response: 37.99 ± 0.31

## Nc1ncn([C@H]2C[C@H](O)[C@@H](CO)O2)c(=O)n1 [Decitabine]
MOLM-13; 0.25 µM
  mass response: 7.58 ± 1.9
MOLM-13; 2.5 µM
  mass response: 9.65 ± 3.3
MOLM-13; 25 µM
  mass response: 9.39 ± 2.4
MOLM-13; 0.00025 M
  mass response: 8.64 ± 2.2

## CNC(=O)c1cc(Oc2ccc(NC(=O)Nc3ccc(Cl)c(C(F)(F)F)c3)c(F)c2)ccn1 [Regorafenib]
MM1S ATCC; 0.04 µM
  mass response: 1.84 ± 1.4
MM1S ATCC; 0.4 µM
  mass response: 0.733 ± 1.4
MM1S ATCC; 4 µM
  mass response: 10.9 ± 0.83
MM1S ATCC; 20 µM
  mass response: 44.9 ± 2.9

## CN(C)C/C=C/C(=O)Nc1cc2c(Nc3ccc(F)c(Cl)c3)ncnc2cc1O[C@H]1CCOC1 [Afatinib]
PC9; 0.01 µM
  mass response: 13.3 ± 4
PC9; 0.1 µM
  mass response: 15.8 ± 1.3
PC9; 1 µM
  mass response: 19.1 ± 1.6
PC9; 10 µM
  mass response: 30.7 ± 4

## CC(C)C[C@H](NC(=O)[C@H](CCc1ccccc1)NC(=O)CN1CCOCC1)C(=O)N[C@@H](Cc1ccccc1)C(=O)N[C@@H](CC(C)C)C(=O)[C@@]1(C)CO1 [Carfilzomib]
MM1S ATCC; 0.005 µM
  mass response: 10.7 ± 4.9
MM1S ATCC; 0.05 µM
  mass response: 31 ± 2.6
MM1S ATCC; 0.1 µM
  mass response: 34.7 ± 2
MM1S ATCC; 0.5 µM
  mass response: 33.4 ± 2.5

## CC(C)C[C@H](NC(=O)CNC(=O)c1cc(Cl)ccc1Cl)B(O)O [Ixazomib]
MM1S ATCC; 0.00025 µM
  mass response: 2.33 ± 1.5
MM1S ATCC; 0.0025 µM
  mass response: -0.705 ± 2.2
MM1S ATCC; 0.025 µM
  mass response: 10.7 ± 0.64
MM1S ATCC; 0.25 µM
  mass response: 9.05 ± 2.4

## Nc1cccc2c1C(=O)N(C1CCC(=O)NC1=O)C2=O (stereo not given) [Pomalidomide]
MM1S ATCC; 0.02 µM
  mass response: 8.45 ± 2.3
MM1S ATCC; 0.2 µM
  mass response: 18.1 ± 5.3
MM1S ATCC; 2 µM
  mass response: 17.1 ± 5.7
MM1S ATCC; 20 µM
  mass response: 16.7 ± 3.2

## CCc1nc(C(N)=O)c(Nc2ccc(N3CCC(N4CCN(C)CC4)CC3)c(OC)c2)nc1NC1CCOCC1 [Gilteritinib]
MOLM-13; 0.002 µM
  mass response: -3.18 ± 4.6
MOLM-13; 0.02 µM
  mass response: 13.3 ± 3.4
MOLM-13; 0.2 µM
  mass response: 35 ± 2.9
MOLM-13; 2 µM
  mass response: 33.9 ± 5.4

## C/C(=C\c1csc(C)n1)[C@@H]1C[C@@H]2O[C@]2(C)CCC[C@H](C)[C@H](O)[C@@H](C)C(=O)C(C)(C)[C@@H](O)CC(=O)N1 [Ixabepilone]
PC9; 0.01 µM
  mass response: 19.5 ± 1.5
PC9; 0.1 µM
  mass response: 37.6 ± 4.5
PC9; 1 µM
  mass response: 36.7 ± 4.5
PC9; 10 µM
  mass response: 36.8 ± 5.7

## C=CC(=O)Nc1cc(Nc2nccc(-c3cn(C)c4ccccc34)n2)c(OC)cc1N(C)CCN(C)C [Osimertinib]
PC9; 0.05 µM
  mass response: 11.8 ± 3
PC9; 0.5 µM
  mass response: 9.37 ± 6.4
PC9; 5 µM
  mass response: 7.62 ± 2.4
PC9; 50 µM
  mass response: 65.8 ± 0.9

## C[C@@H]1C[C@H]2[C@@H]3CCC4=CC(=O)C=C[C@]4(C)[C@@]3(F)[C@@H](O)C[C@]2(C)[C@@]1(O)C(=O)CO [Dexamethasone]
MM1S ATCC; 0.02 µM
  mass response: 13.7 ± 1.9
MM1S ATCC; 0.2 µM
  mass response: 14.8 ± 2.1
MM1S ATCC; 2 µM
  mass response: 14.5 ± 2
MM1S ATCC; 20 µM
  mass response: 13.5 ± 2

## COc1cc2ncnc(Nc3ccc(F)c(Cl)c3)c2cc1NC(=O)/C=C/CN1CCCCC1 [Dacomitinib]
PC9; 0.5 µM
  mass response: 14.47 ± 0.087
PC9; 5 µM
  mass response: 25.2 ± 0.96
PC9; 20 µM
  mass response: 55.6 ± 1.2
PC9; 50 µM
  mass response: 62.57 ± 0.055

## N[C@@H](Cc1ccc(N(CCCl)CCCl)cc1)C(=O)O [Melphalan]
MM1S ATCC; 0.1 µM
  mass response: 9.64 ± 4.4
MM1S ATCC; 1 µM
  mass response: 17.5 ± 4.6
MM1S ATCC; 10 µM
  mass response: 12.9 ± 2.5
MM1S ATCC; 50 µM
  mass response: 29.6 ± 1.6
